The subject of test [1] is IL-2 release from stimulated Jurkat cells. Briefly: Human IL-2 Release Phenotypic Assay (Assay 3). Conditions: Jurkat cells (clone E6-1), 200 ng/mL PMA + 300 ng/mL ionomycin, 48 hours, IL-2 by ELISA. In kind it is cell-based. The procedure, abridged:
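Jurkat E6-1 cells in RPMI1640/10% FBS were seeded at 50 000 cells/well and incubated overnight at 37° C. Half-log compound dilutions (0.5% final DMSO) were added for 30 min, then cells were stimulated with 200 ng/mL PMA + 300 ng/mL ionomycin for 48 h. IC50 came from a 4-parameter non-linear regression fit.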

For the next test, the target named is T1, FL hMALT1 enzyme (Homo sapiens, UniProt Q9UDY8).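 Further: Cell-free protease assay: enzyme preincubated with compound 30 min at room temperature, then cleavage of fluorogenic Ac-LVSR-AMC substrate (100 µM) tracked by fluorescence (ex 360/em 460 nm).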
T1 sequence (Q9UDY8 1-824): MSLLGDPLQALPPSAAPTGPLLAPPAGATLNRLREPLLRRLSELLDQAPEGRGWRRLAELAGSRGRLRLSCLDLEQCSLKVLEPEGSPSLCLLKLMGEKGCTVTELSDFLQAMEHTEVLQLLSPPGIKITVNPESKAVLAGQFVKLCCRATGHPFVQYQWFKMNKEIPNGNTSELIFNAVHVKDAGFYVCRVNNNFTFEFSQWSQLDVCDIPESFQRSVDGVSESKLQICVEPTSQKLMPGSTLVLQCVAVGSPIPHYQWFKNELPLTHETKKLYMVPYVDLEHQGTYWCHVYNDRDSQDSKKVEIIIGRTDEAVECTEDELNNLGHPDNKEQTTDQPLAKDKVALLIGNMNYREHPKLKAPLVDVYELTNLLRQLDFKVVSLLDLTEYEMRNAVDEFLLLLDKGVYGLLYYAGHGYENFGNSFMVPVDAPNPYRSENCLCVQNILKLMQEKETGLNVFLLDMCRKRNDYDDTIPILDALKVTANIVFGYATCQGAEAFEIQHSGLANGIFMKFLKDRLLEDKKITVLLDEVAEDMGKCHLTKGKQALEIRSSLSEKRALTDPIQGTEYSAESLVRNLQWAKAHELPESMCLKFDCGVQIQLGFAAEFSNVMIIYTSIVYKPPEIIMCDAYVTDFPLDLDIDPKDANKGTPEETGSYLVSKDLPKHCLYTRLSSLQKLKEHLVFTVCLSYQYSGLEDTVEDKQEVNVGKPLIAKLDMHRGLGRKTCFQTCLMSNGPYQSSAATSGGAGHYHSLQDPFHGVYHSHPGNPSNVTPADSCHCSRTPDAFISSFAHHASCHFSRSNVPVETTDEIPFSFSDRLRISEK

The target in test [2] is MALT1-GS-Ub (6-His-hMALT-1 residues 339-715 fused to ubiquitin) (Homo sapiens, UniProt Q9UDY8).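 Further: in vitro MALT1 protease assay: enzyme preincubated with compound 30 min at room temperature, then cleavage of fluorogenic Ac-LVSR-AMC substrate (100 µM) followed by fluorescence every 15 min.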
Procedure: (§1) MALT1 protease activity was assessed in vitro by measuring the cleavage of a fluorogenic tetrapeptide substrate.
A protein (MALT1-GS-Ub) comprising 6-His-hMALT-1 (residues 339-715), fused to ubiquitin with an 8×GGS linker, was expressed in E. coli, and purified using chitin resin to remove contaminants followed by affinity chromatography purification and size-exclusion chromatography, according to standard protocols.
Briefly, MALT1-GS-Ub (300-600 nM) was incubated with substrate (Ac-LVSR-AMC, 100 μM) in reaction buffer comprising 50 mM HEPES (pH7.0), 25 mM KCl, 0.1% (v/v) CHAPS and 1 mM TCEP.
(§2) Test compounds dissolved in DMSO were dispensed into assay plates (384-well, black, shallow ProxiPlates). 7 μl enzyme solution was added and incubated at room temperature for 30 minutes to allow compound binding to occur. 2 μl substrate solution was then added and the fluorescence (excitation 360 nm, emission 460 nm) read every 15 minutes using a suitable plate reader. Final assay DMSO concentration was 1%. […] IC50 values were calculated using GraphPad Prism using a 4-parameter non-linear regression curve fit.

pIC50: −log10 of the molar value.

The term pIC50 denotes the IC50 on a negative log10 scale, so that one unit is a factor of ten.

Chain of MALT1-GS-Ub (6-His-hMALT-1 residues 339-715 fused to ubiquitin) (Q9UDY8 with tags, fused parts or gaps limits assumed): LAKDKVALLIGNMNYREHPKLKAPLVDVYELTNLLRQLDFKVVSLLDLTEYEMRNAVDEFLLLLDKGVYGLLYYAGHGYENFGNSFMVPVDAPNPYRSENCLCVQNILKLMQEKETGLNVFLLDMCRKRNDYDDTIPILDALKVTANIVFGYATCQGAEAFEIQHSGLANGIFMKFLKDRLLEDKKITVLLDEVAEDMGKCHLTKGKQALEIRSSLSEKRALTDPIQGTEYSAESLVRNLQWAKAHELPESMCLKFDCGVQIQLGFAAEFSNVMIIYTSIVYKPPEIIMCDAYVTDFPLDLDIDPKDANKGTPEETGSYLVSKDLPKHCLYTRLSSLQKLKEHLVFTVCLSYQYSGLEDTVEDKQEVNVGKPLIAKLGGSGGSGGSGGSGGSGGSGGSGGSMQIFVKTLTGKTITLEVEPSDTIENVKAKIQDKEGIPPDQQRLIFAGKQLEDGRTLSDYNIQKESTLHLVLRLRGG
Procedure for FL hMALT1 enzyme: as §1
For a higher sensitivity assay, commercially available FL hMALT1 enzyme (Abcam, 1-10 nM) was incubated with substrate (Ac-LVSR-AMC, 100 μM) in reaction buffer comprising 50 mM HEPES (pH7.0), 25 mM KCl, 0.1% (v/v) CHAPS, 1 mM TCEP and 0.7 M sodium citrate.
as §2

Consider `COC1c2ccccc2CC1Nc1ccc([C@H](N(C)C(=O)C2CCS(=O)(=O)CC2)C(F)(F)F)cc1` (stereo in doubt) [Example 11, N-Methyl-N—((S)-2,2,2-trifluoro-1-(4-(((1,2-trans)-1-methoxy-2,3-dihydro-1H-inden-2-yl)amino)phenyl)ethyl)tetrahydro-2H-thiopyran-4-carboxamide 1,1-dioxide], for which the pIC50 in test [1] was less than 5.00; on FL hMALT1 enzyme it was 5.92; in test [2], 5.41.
The like results for `CC1c2ccccc2CC1Nc1ccc([C@H](N(C)C(=O)C2CCS(=O)(=O)CC2)C(F)(F)F)cc1` (stereo in doubt) [Example 9, N-Methyl-N—((S)-2,2,2-trifluoro-1-(4-(((1,2-trans)-1-methyl-2,3-dihydro-1H-inden-2-yl)amino)phenyl)ethyl)tetrahydro-2H-thiopyran-4-carboxamide 1,1-dioxide] were, in that order, 6.68, 8.22 and 6.62.
